Measured values reported in patent US20210378934A1, “HAIR CARE ACTIVE AGENT” (GIVAUDAN SA, priority 2018, published 2021).
Values after ≈ are worked out from the molar mass of the structure shown. Read-outs that look alike come from different tables or passages of the source. Values belong to the molecule of their own block, whether it stands above or below them.

Key:
[1] = tested on: co-culture of Normal Human Epidermal Keratinocytes (NHEKs) and Normal Human Melanocytes (NHMs); assay: Melanin production in NHK/NHM co-culture: comparison (Example 7); assay type: cell-based; conditions: 5 days; for effect on melanin synthesis / melanin content (in words): taxifolin glucoside 0.13 μg/mL alone, + N-acetyl tyrosine 15 μg/mL or + L-tyrosine 15 μg/mL
Description: The aim of this study was to compare the effect of the hair care active agent of the present invention, which comprises taxifolin glucoside and N-acetyl tyrosine, with those of L-tyrosine (positive reference), of taxifolin glucoside, and of a mixture of taxifolin glucoside and L-tyrosine. The model used for this comparison was a co-culture of Normal Human Epidermal Keratinocytes (NHEKs) and Normal Human Melanocytes (NHMs).
The cell culture was realized with primary cells isolated from human skin biopsies.
Normal Human Keratinocytes (NHKs) were seeded at 60000 cells per well in 6-wells plates pre-coated with collagen I. 4 hours later, Normal Human Melanocytes (NHMs) were seeded at 60 000 cells per well in the same 6-wells plates. The cells were incubated for 48 hours in complete medium (EpiLife® supplemented with HKGS=Human Kerationcyte Growth Supplement).
After 48 hours of culture, the cells were stimulated for 5 days with the following compositions: • L-tyrosine at 450 μg/mL (Sigma) • Taxifolin glucoside at 0.13 μg/mL • Taxifolin glucoside at 0.13 μg/mL+N-acetyl tyrosine at 15 μg/mL (similar to Example 1) • Taxifolin glucoside at 0.13 μg/mL+L-tyrosine at 15 μg/mL (Sigma)
The compositions were diluted in a basal medium without supplements (EpiLife®). Every 2 days, the treatments were renewed.
After 5 days of treatment, cells were rinsed off with PBS. Then, in each well, 200 μL of a 0.5N NaOH solution was added. The cell lysates were collected in 1.5 mL microtubes with secure caps. In parallel, a standard range of melanin was prepared (1000 μg/mL). Microtubes of samples and standard range were heated for 1 hour at 80° C. in a dry bath. After the heating, 100 μL of each sample was transferred to a 96-wells plate.
Optical density was measured at 405 nm to determine the melanin content. […]
If it was not significant, the data was evaluated with statistical parametric tests (ANOVA followed by Dunnett's multiple comparisons test).
If it was significant, the data was evaluated with statistical non parametric tests (ANOVA of Kruskall-Wallis followed by a Mann-Whitney U test).

melanogenesis = conditions: Sang Mi An et al. Phytother. Res. 22, 1200-1207 (2008); cited from earlier work
Solubility = assay type: physicochemical
[2] = tested on: melanocytes and melanoblasts in Anagen VI human hair follicles; assay: NKI/beteb melanocyte quantification in micro-dissected hair follicles under oxidative stress (Example 5); assay type: cell-based; conditions: cumene hydroperoxide oxidative stress
Procedure: Anagen VI human hair follicles (HFs) were dissected from the scalp (Donor). The HFs used were selected after 18 hours of pre-culture. The following parameters were evaluated in the selection procedure: growth rate (>0.18 mm/18 hours), morphology (no signs of dystrophy).
Starting from day 1, after the selection at day 0, the test compounds were dissolved in the culture medium and the HFs were cultured up to planned endpoints. Twelve hair follicles were used per treatment for each read out parameter. The culture medium was renewed every other day.
Total melanocytes quantification was obtained following NKI/beteb-DAPI double immunostaining of the cryo-sections. NKI/beteb antibody (#MON7006-1 by Monosan) recognizes a (pre-) melanosomal antigen present in all melanocytes (i.e. both active melanocytes and melanoblasts).
On the immunostained sections, image analysis was performed in order to quantify the number of NKI-beteb positive cells within each hair follicle. The obtained value was normalized relative to the total number of cells of the considered area.
Image analysis was performed using ImageJ software (NIH, USA).
All quantitative data was summarized in terms of the mean score, standard deviation and standard error of the mean for each treatment.
Differences between groups were evaluated by One-way ANOVA with permutation test followed by Tukey and t-test with permutation.

[3] = tested on: Anagen VI human hair follicles; assay: ROS evaluation (DCFH-DA) in micro-dissected hair follicles under cumene hydroperoxide stress (Example 5); assay type: cell-based; conditions: 50 μM cumene hydroperoxide, 1 hour (oxidative stimulus)
Procedure: After the selection, the HFs were incubated for 1 hour with the standard solution from Example 1 dissolved in William's E medium. Afterwards, the HFs were cultured for 30 min in the presence of dichlorofluoerescein diacetate (DCFH-DA), a probe that reacts with ROS to become fluorescent. […] At the end of the experimental phase, the HFs were harvested, cryo-fixed and cut at the cryo-micro-tome for consequent image acquisition and image analysis of fluorescence within the sections. A slide for each HF was processed by image acquisition and related analysis (i.e. 12 images for each treatment). […]

Molecule: N[C@@H](Cc1ccc(O)cc1)C(=O)O [L-tyrosine]
- melanin content / synthesis of melanin, change compared to the untreated condition ([1]; L-tyrosine 450 μg/mL, taxifolin glucoside 0.13 μg/mL + N-acetyl tyrosine 15 μg/mL, p<0.001): +35%

- solubility (Solubility; water with taxifolin glucoside, aqueous with cosolvent or surfactant or cyclodextrin, suitable amounts of taxifolin glucoside, molar ratio about 1:1, read-out: solubility of taxifolin in water in the presence of taxifolin glucoside): ≥ 20000 µg/mL
- solubility (Solubility; water, typical, read-out: solubility of taxifolin in water): ~1000 µg/mL (≈ 3.29 mM)
Molecule: O=C1c2c(O)cc(O)cc2O[C@H](c2ccc(O)c(O)c2)[C@H]1O [taxifolin]
- effect on melanogenesis (in words) (melanogenesis): inhibit melanogenesis

Molecule: Taxifolin glucoside
- effect on melanin synthesis / melanin content (in words) [1]: not able to induce synthesis of melanin
- effect on melanin synthesis / melanin content (in words) ([1]; listed as taxifolin glucoside): does not have any influence

Molecule: cumene hydroperoxide
- reduction of the number of melanocytes compared to the untreated condition [2]: 78%
- increase of ROS production compared to the untreated condition [3]: +256%
